Test results taken from patent publication US20100137324A1, “RHO-KINASE INHIBITORS” (priority 2001, published 2010).

| melting point [°C] | Structure (SMILES) |
| --- | --- |
| 249 to 252 | O=C(Nc1cnc2ccccc2c1)c1nc(Nc2ccc3[nH]ncc3c2)c2ccccc2n1 [Example 136, 4-(1H-indazol-5-ylamino)-N-(3-quinolinyl)-2-quinazolinecarboxamide] |
| 283 to 286 | CNC(=O)c1nc(Nc2ccc3[nH]ncc3c2)c2ccccc2n1 [Example 137, 4-(1H-indazol-5-ylamino)-N-methyl-2-quinazolinecarboxamide] |
| 282 to 288 | Cc1nc(Nc2ccc3[nH]ncc3c2)c2ccccc2n1 [Example 139, N-(1H-indazol-5-yl)-N-(2-methyl-4-quinazolinyl)amine] |

More lines, now with the values behind:

| Structure (SMILES) | melting point [°C] |
| --- | --- |
| O=C(NC1CCCC1)c1nc(Nc2ccc3[nH]ncc3c2)c2ccccc2n1 [Example 134, N-cyclopentyl-4-(1H-indazol-5-ylamino)-2-quinazolinecarboxamide] | 237 to 239 |
| O=C(Nc1ccccn1)c1nc(Nc2ccc3[nH]ncc3c2)c2ccccc2n1 [Example 135, 4-(1H-indazol-5-ylamino)-N-(2-pyridinyl)-2-quinazolinecarboxamide] | 297 to 300 |
| O=C(NC1CCCCC1)c1nc(Nc2ccc3[nH]ncc3c2)c2ccccc2n1 [Example 133, N-cyclohexyl-4-(1H-indazol-5-ylamino)-2-quinazolinecarboxamide] | 215 to 217 |
| COc1ccc(NC(=O)c2nc(Nc3ccc4[nH]ncc4c3)c3ccccc3n2)cc1 [Example 132, 4-(1H-indazol-5-ylamino)-N-(4-methoxyphenyl)-2-quinazolinecarboxamide] | 210 to 213 |
| O=C(Nc1ccncc1)c1nc(Nc2ccc3[nH]ncc3c2)c2ccccc2n1 [Example 131, 4-(1H-indazol-5-ylamino)-N-(4-pyridinyl)-2-quinazolinecarboxamide] | 295 to 298 |
